Test results taken from BindingDB's records for patent US11149040 (Amgen, 2021).
pEC50: −log10 of the molar value.

Molecular target: T1, Apelin receptor (Homo sapiens, UniProt P35414)
T1 sequence (P35414 whole entry): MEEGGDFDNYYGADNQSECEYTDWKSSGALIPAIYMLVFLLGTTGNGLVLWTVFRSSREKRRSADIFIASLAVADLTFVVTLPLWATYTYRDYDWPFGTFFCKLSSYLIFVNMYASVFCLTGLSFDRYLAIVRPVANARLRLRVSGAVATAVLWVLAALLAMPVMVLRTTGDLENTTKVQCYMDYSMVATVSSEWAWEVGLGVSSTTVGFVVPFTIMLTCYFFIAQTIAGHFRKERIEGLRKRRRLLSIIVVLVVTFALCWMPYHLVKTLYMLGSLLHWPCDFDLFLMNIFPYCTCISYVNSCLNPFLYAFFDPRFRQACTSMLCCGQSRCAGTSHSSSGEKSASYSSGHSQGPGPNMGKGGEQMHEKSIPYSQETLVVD
Assay: [35S]GTPgammaS Binding
Procedure: The human APJ receptor was cloned by polymerase chain reaction and the gene encoding the receptor was subcloned in pFLAG-CMV -3 expression vector (Sigma, Saint Louis, Mo. USA) in-house at Amgen. A GTPγS binding assay was performed on membranes prepared from CHO cells stably expressing human APJ receptor. The optimum experimental conditions for the concentrations of GDP, MgCl2, and NaCl in the assay buffer were initially determined. The assay was performed in 9 μL assay buffer [20 mM HEPES, pH 7.5, 5 mM MgCl2, 100 mM NaCl and 0.1% (w/v) BSA], 1 μL of diluted test compound (starting with 0.75 mM, 2-fold serial dilution with DMSO, total 22 points), 10 μL of 18 μM GDP (final concentration of 3 μM GDP), 20 μL of […] membrane protein expressing human APJ receptor captured with WGA PS beads (final concentration of 5 μg per well), and 20 μL of 0.3 nM [35S]GTPγS (final concentration is 0.1 nM [35S]GTPγS)(Perkin Elmer Life and Analytical Sciences, Waltham USA). […] Incubation was at RT for 90 min and the microplate was read using a ViewLux ultra HTS Microplate Imager (PerkinElmer, Inc.). All the results presented are means of several independent experiments and analyzed by non-linear regression methods using the commercially available program Prism (GraphPad, San Diego, Calif.) providing the EC50 values detailed in Table 13.

Cc1cnc([C@H](OC(C)C)[C@H](C)S(=O)(=O)Nc2nnc3n2-c2c(F)cccc2/C=C\CC3)nc1 (single isomer, unassigned) [US11149040, Example 49.0] gave a pEC50 of 7.01.
